Test: xn = mol fraction of the nth substance listed
Conditions: 101 kPa

CNc1ccccc1 + CCCC[n+]1ccn(C)c1.F[B-](F)(F)F
speed of sound [m/s]
Conditions	x1 = 0.0974	x1 = 0.2093	x1 = 0.2979	x1 = 0.3968	x1 = 0.5009	x1 = 0.592	x1 = 0.697	x1 = 0.7972	x1 = 0.8999	x1 = 1
293.15 K	1578.7	–	–	1584.9	–	1594.9	1602.1	1601.6	1594.2	1582.7
303.15 K	1554.2	–	–	1560.6	1562	1566.3	1571.4	1570	1559.5	–
313.15 K	–	1531.6	1532.2	1534.8	–	1537.9	1540.1	1537.7	1524.9	1511.6
323.15 K	1507.2	1507.9	1508.4	1509.7	1510.5	–	–	1504.7	–	1476.4

CCCC[n+]1ccn(C)c1.F[B-](F)(F)F + CNc1ccccc1
x2 = 0
Conditions	speed of sound [m/s]
293.15 K	1577.5
303.15 K	1553.1
313.15 K	1529.6
323.15 K	1506.8

From a compilation of properties of binary mixtures (doi:10.1016/j.molliq.2016.05.033)
